Source: article PMC4618636 (Pharmacology Research & Perspectives, 2015)
“And” between values parts separate entries of the source, which are not always exact repeats. Equal values may be shown once. Read-outs that look alike come from different tables or passages of the source.

Key:
CYP3A4 [1] = conditions: for CYP3A4 induction: negative controls, any concentration tested (quinidine 0.1–250 μmol/L, flumazenil 0.05–50 μmol/L), data not shown; for CYP3A4 RIS: mean of two experiments; for CYP3A4 % Rif: relative to positive control rifampicin, equation 2; for CYP3A4 Ind50: column headed Ind50 in Table 5
CYP2B6 = conditions: for CYP2B6 induction: negative controls, any concentration tested (quinidine 0.1–250 μmol/L, flumazenil 0.05–50 μmol/L), data not shown; for CYP2B6 Indmax: mean from two experiments; for CYP2B6 % PB: relative to positive control phenobarbital, equation 2
CYP3A4 [2] = conditions: in vivo induction value used for the RIS calibration; cited from earlier work
[3] = upcyte Donor 10-03, mean from two experiments
[4] = upcyte Donor 10-03, values of two experiments
[5] = upcyte Donor 151-03, mean from two experiments
[6] = upcyte Donor 151-03, values of two experiments
[7] = upcyte Donor 422A-03, mean from two experiments
[8] = upcyte Donor 422A-03, values of two experiments
[9] = upcyte Donor 653-03, mean from two experiments
[10] = upcyte Donor 653-03, values of two experiments

SMILES | CYP3A4 Indmax (CYP3A4 [1]; [3]) | CYP3A4 RIS (CYP3A4 [1]; upcyte Donor 10-03) | CYP3A4 % Rif (CYP3A4 [1]; upcyte Donor 10-03) | CYP3A4 Indmax (CYP3A4 [1]; [5]) | CYP3A4 RIS (CYP3A4 [1]; upcyte Donor 151-03) | CYP3A4 % Rif (CYP3A4 [1]; upcyte Donor 151-03) | CYP3A4 Indmax (CYP3A4 [1]; [6]) | CYP3A4 Indmax (CYP3A4 [1]; [7]) | CYP3A4 RIS (CYP3A4 [1]; upcyte Donor 422A-03) | CYP3A4 % Rif (CYP3A4 [1]; upcyte Donor 422A-03) | CYP3A4 Indmax (CYP3A4 [1]; [8]) | CYP3A4 Ind50 (CYP3A4 [1]; upcyte Donor 653-03) | CYP2B6 Indmax (CYP2B6; upcyte Donor 10-03) | CYP2B6 % PB (CYP2B6; upcyte Donor 10-03) | CYP2B6 Indmax (CYP2B6; upcyte Donor 151-03) | CYP2B6 % PB (CYP2B6; upcyte Donor 151-03) | CYP2B6 Indmax (CYP2B6; upcyte Donor 422A-03) | CYP2B6 % PB (CYP2B6; upcyte Donor 422A-03) | CYP2B6 Indmax (CYP2B6; upcyte Donor 653-03) | CYP2B6 % PB (CYP2B6; upcyte Donor 653-03) | also measured
CCOC(=O)c1ncn2c1CN(C)C(=O)c1cc(F)ccc1-2 [Flumazenil, flumazenil] | No induction | No induction | No induction | No induction | No induction | No induction | No induction | No induction | No induction | No induction | No induction | No induction | No induction | No induction | No induction | No induction | No induction | No induction | No induction | No induction | CYP3A4 induction (CYP3A4 [1]): did not induce; CYP3A4 Indmax (CYP3A4 [1]; [4]): No induction; CYP3A4 Indmax (CYP3A4 [1]; [9]): No induction; CYP3A4 RIS (CYP3A4 [1]; upcyte Donor 653-03): No induction; CYP3A4 Indmax (CYP3A4 [1]; [10]): No induction; CYP2B6 induction (CYP2B6): did not induce; % Decrease in midazolam AUC (CYP3A4 [2]): 0%
NC(=O)N1c2ccccc2C=Cc2ccccc21 [Carbamazepine, carbamazepine] | 4.8 fold | 2.675 | 13% | 3.8 fold | 3.071 | 45% | 4.2 fold and 3.4 fold | 4.0 fold | 1.940 | 28% | 4.0 fold and 4.1 fold | 52 | 2.0 fold | 33% | 2.3 fold | 68% | 4.3 fold | 52% | 1.4 fold | 17% | CYP3A4 Indmax (CYP3A4 [1]; [4]): 5.5 fold and 4.1 fold; CYP3A4 Indmax (CYP3A4 [1]; [9]): 5.7 fold; CYP3A4 RIS (CYP3A4 [1]; upcyte Donor 653-03): 4.138; CYP3A4 Indmax (CYP3A4 [1]; [10]): 6.2 fold and 5.2 fold; % Decrease in midazolam AUC (CYP3A4 [2]): 95%
C[C@@H]1C[C@H]2[C@@H]3CCC4=CC(=O)C=C[C@]4(C)[C@@]3(F)[C@@H](O)C[C@]2(C)[C@@]1(O)C(=O)CO [Dexamethasone, dexamethasone] | – | – | – | – | – | – | – | – | – | – | – | – | No induction | No induction | No induction | No induction | No induction | No induction | No induction | No induction | –
O=C1NC(=O)C(c2ccccc2)(c2ccccc2)N1 [Phenytoin, phenytoin] | 14.6 fold | 1.970 | 45% | 4.7 fold | 3.908 | 60% | 5.7 fold and 3.8 fold | 15.8 fold | 0.464 | 137% | 14.8 fold and 16.9 fold | 59 | 3.6 fold | 88% | 2.7 fold | 89% | 4.0 fold | 48% | 2.8 fold | 85% | CYP3A4 induction, % of rifampicin maximal induction (CYP3A4 [1]; upcyte Donor 653-03): 120%; CYP3A4 Indmax (CYP3A4 [1]; [9]): 6.3 fold; CYP3A4 RIS (CYP3A4 [1]; upcyte Donor 653-03): 4.341; CYP3A4 Indmax (CYP3A4 [1]; [10]): 7.4 fold and 5.2 fold; % Decrease in midazolam AUC (CYP3A4 [2]): 94%
C=C[C@H]1C[N@@]2CC[C@H]1C[C@@H]2[C@@H](O)c1ccnc2ccc(OC)cc12 [Quinidine, quinidine] | No induction | No induction | No induction | No induction | No induction | No induction | No induction | No induction | No induction | No induction | No induction | No induction | No induction | No induction | No induction | No induction | No induction | No induction | No induction | No induction | CYP3A4 induction (CYP3A4 [1]): did not induce; CYP3A4 Indmax (CYP3A4 [1]; [4]): No induction; CYP3A4 Indmax (CYP3A4 [1]; [9]): No induction; CYP3A4 RIS (CYP3A4 [1]; upcyte Donor 653-03): No induction; CYP3A4 Indmax (CYP3A4 [1]; [10]): No induction; CYP2B6 induction (CYP2B6): did not induce; % Decrease in midazolam AUC (CYP3A4 [2]): 0%
CCc1ccc(CCOc2ccc(CC3SC(=O)NC3=O)cc2)nc1 (stereo not shown) [Pioglitazone, pioglitazone] | 4.3 fold | 0.0079 | 11% | 4.0 fold | 0.0040 | 48% | 4.0, 4.0 fold | 2.6 fold | 0.0040 | 14% | 2.3 fold and 2.8 fold | 91 | 2.6 fold | 55% | 1.9 fold | 49% | 3.6 fold | 42% | 2.1 fold | 54% | CYP3A4 Indmax (CYP3A4 [1]; [4]): 4.4 fold and 4.2 fold; CYP3A4 Indmax (CYP3A4 [1]; [9]): 9.2 fold; CYP3A4 RIS (CYP3A4 [1]; upcyte Donor 653-03): 0.0066; % Decrease in midazolam AUC (CYP3A4 [2]): 26%
CO[C@H]1/C=C/O[C@@]2(C)Oc3c(C)c(O)c4c(O)c(c(/C=N/N5CCN(C)CC5)c(O)c4c3C2=O)NC(=O)/C(C)=C\C=C\[C@H](C)[C@H](O)[C@@H](C)[C@@H](O)[C@@H](C)[C@H](OC(C)=O)[C@@H]1C [Rifampicin, rifampicin] | – | – | – | – | – | – | – | – | – | – | – | – | 2.0 fold | 34% | 1.3 fold | 14% | 7.8 fold | 108% | 1.6 fold | 29% | –
Cc1c(C)c2c(c(C)c1O)CCC(C)(COc1ccc(CC3SC(=O)NC3=O)cc1)O2 (stereo not shown) [Troglitazone, troglitazone] | 4.7 fold | 0.083 | 12% | 1.8 fold | 0.094 | 13% | 2.3 fold and 1.3 fold | 2.7 fold | 1.030 | 15% | 2.6 fold and 2.7 fold | 14 | 5.4 fold | 150% | 2.1 fold | 57% | 5.0 fold | 63% | 2.3 fold | 63% | CYP3A4 Indmax (CYP3A4 [1]; [4]): 5.0 fold and 4.4 fold; CYP3A4 Indmax (CYP3A4 [1]; [9]): 2.2 fold; CYP3A4 RIS (CYP3A4 [1]; upcyte Donor 653-03): 0.466; CYP3A4 Indmax (CYP3A4 [1]; [10]): 1.8 fold and 2.6 fold; % Decrease in midazolam AUC (CYP3A4 [2]): 67%
